One assay has as its target T1, PI3K-delta (Homo sapiens, UniProt O00329).
T1 construct: purchased Upstate; Millipore 14-604
Kind of assay: HTRF PI3K biochemical assay, delta isoform. As to conditions: form screened (neutral or TFA salt) given, read-out: PI3Kdelta IC50. For orientation: Time-resolved FRET reads energy transfer from a long-lived donor to a nearby acceptor.

In another assay the target is T2, PI3K-alpha (Homo sapiens, UniProt P42336).
T2 construct: purchased Upstate; Millipore 14-602
Kind of assay: HTRF PI3K biochemical assay, alpha isoform. As to conditions: ratio PI3K-alpha IC50 value / PI3K-delta IC50 value.

Structures are written as SMILES. Where only a bound is given, the exact number is not on record here.

T2 sequence (P42336 whole entry): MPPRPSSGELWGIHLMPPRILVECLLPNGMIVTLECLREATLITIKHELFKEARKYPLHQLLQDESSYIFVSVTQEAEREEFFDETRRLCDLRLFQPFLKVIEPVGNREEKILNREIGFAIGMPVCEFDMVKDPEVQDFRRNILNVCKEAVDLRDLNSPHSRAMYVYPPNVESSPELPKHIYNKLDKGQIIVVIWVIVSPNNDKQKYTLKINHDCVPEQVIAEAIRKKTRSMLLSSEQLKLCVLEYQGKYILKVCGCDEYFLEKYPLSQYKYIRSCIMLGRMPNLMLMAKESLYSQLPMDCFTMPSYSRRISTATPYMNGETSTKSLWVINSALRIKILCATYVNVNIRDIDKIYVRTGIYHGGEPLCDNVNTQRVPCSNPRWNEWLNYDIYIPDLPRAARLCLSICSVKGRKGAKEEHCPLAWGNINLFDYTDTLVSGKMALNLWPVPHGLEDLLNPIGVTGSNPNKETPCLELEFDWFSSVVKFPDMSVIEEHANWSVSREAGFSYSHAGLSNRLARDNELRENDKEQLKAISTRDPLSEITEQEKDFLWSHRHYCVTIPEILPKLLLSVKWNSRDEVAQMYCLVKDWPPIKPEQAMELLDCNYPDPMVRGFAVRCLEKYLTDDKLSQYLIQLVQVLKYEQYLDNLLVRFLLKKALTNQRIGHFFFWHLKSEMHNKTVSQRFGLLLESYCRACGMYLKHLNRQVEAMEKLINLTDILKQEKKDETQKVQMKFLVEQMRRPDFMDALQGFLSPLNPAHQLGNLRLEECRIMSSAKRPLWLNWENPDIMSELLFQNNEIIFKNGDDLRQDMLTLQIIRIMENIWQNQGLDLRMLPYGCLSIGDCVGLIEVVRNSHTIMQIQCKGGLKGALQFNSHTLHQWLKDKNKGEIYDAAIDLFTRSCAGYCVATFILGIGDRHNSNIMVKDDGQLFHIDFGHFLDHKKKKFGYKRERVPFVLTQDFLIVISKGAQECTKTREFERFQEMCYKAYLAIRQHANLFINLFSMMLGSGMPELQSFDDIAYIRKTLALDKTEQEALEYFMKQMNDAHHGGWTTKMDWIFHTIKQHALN
T2 sequence (P27986 whole entry partner): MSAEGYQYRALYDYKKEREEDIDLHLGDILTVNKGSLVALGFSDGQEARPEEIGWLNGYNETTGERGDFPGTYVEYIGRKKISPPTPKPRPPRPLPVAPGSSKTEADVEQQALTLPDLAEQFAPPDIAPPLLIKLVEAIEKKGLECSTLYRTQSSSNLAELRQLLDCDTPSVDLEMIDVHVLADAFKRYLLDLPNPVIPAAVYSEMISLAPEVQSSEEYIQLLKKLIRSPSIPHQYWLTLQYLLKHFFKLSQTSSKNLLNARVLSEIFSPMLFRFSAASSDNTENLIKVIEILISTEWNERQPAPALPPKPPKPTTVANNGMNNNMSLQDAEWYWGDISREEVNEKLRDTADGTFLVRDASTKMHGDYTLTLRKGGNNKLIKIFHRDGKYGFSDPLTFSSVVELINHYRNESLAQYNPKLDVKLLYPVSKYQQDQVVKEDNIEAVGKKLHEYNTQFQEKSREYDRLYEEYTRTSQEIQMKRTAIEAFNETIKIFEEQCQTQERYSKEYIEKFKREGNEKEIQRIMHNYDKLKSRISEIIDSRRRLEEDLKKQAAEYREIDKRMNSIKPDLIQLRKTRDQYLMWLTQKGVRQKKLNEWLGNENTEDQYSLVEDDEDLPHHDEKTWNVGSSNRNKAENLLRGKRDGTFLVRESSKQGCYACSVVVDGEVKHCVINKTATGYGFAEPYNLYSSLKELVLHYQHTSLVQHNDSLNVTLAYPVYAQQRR
T1 sequence (O00329 whole entry): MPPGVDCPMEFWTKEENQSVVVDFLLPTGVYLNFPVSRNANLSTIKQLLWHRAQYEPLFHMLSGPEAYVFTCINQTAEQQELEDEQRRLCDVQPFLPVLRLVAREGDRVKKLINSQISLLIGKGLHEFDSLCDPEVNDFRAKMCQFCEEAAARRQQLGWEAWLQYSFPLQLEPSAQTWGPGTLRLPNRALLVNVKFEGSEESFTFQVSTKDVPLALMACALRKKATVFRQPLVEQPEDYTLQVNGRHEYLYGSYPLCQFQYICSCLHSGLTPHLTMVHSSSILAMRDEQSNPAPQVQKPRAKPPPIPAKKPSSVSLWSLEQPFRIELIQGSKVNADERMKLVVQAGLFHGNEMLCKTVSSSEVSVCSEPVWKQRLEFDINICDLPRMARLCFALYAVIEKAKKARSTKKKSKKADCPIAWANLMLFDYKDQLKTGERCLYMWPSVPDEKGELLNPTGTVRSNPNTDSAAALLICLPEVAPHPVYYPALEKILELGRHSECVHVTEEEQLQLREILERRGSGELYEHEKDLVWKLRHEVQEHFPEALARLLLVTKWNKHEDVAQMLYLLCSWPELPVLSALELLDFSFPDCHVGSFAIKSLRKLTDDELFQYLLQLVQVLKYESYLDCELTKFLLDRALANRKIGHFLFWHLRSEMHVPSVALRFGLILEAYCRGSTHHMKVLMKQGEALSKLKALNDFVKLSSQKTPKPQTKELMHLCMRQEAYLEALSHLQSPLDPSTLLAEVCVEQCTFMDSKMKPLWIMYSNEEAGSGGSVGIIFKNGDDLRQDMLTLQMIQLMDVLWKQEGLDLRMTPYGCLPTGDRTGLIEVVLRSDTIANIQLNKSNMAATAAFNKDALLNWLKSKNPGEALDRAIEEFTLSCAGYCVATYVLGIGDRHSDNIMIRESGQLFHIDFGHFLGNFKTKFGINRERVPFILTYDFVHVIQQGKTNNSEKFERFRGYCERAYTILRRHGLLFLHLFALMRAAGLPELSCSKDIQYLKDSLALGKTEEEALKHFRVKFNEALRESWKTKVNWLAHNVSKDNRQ
T1 sequence (P27986 whole entry partner): as the sequence (P27986 whole entry partner) above
Description for PI3K-alpha: The PI3-Kinase biochemical assays were developed to measure the intrinsic potency and compound dependent inhibition of the alpha, beta, delta, and gamma PI3K isoform enzymes. This assay was developed and further optimized from a kit produced by Upstate (Millipore catalog #33-047) and has been configured for HTS and SAR screening. Briefly, this procedure exploits the exquisite specificity and high affinity binding of enzyme reaction substrate phosphatidyl(3,4,5)triphosphate (PIP3) to the GRP1 pleckstrin homology (PH) domain to generate the signal. In the absence of PIP3, an HTRF (Homogeneous Time-Resolved Fluorescence energy transfer) complex is formed consisting of europium (Eu)-labeled anti-GST, GSTtagged GRP1-PH domain, biotin-PIP3 and streptavidin conjugated APC. The native PIP3 produced by PI3-Kinase activity disrupts in a competitive manner the biotin-PIP3 from the PH domain, resulting in the loss of energy transfer (HTRF complex) and a decrease in the signal. The format of this assay is the same for all 4 isoforms of PI3K; the differences lie in the concentration of enzyme used to achieve robust assay window. The alpha, beta, and delta assays are run at 0.5, 1, and 0.3 nM enzymes and the gamma assay is run at 5 nM enzyme. The ATP concentration is 100 uM in the alpha, beta, and delta assays and 50 uM ATP in the gamma assay. All reactions are run at 5 uM PIP2.
Compounds are serially diluted (3-fold in 100% DMSO) across a 384-well polypropylene source plated from column 3 to column 12 and column 13 to column 22, to yield 10 concentration dose response for each test compound. Columns 1, 2, 23 and 24 contain either only DMSO or pharmacological known control inhibitor.
The PI3-Kinase biochemical assay was optimized using the HTRF kit provided by Upstate (Millipore). The assay kit contains six reagents: 1) 4× Reaction Buffer; 2) native PIP2 (substrate); 3) Stop (EDTA); 4) Detection Mix A (Streptavidin-APC); 5) Detection Mix B (Eu-labeled Anti-GST plus GST-tagged PH-domain); 6) Detection Mix C.
PI3Kinase Reaction Buffer is prepared by dilution the stock 1:4 with de-ionized water. […] Enzyme addition and compound pre-incubation are initiated by the addition of 1.25 ul of PI3K (at twice its final concentration) in the 1× reaction buffer to all wells using a BioRaptor. Plates are incubated at room temperature for 15 minutes. Reactions are initiated by addition of 1.25 ul of 2× substrate solution (PIP2 and ATP in 1× reaction buffer) using BioRaptor. Plates are incubated in humidified chamber at room temperature for one hour. Reactions are quenched by addition of 0.625 uL of stop solution to all wells using the BioRaptor. The quenched reactions are then processed to detect product formation by adding 0.625 uL of Detection Solution to all wells using the BioRaptor (Detection mix C, Detection Mix A, and Detection Mix B combined together in an 18:1:1 ratio prepared 2 hours prior to use).
The loss of the HTRF signal is due to the displacement of biotinylated-PIP3 from the PH domain by the PI3K-dependent conversion of PIP2 to PIP3. This loss of signal is nonlinear with respect to both increasing product and time. This non-linear detection will impact accuracy of IC50 calculations; therefore, there is a need for a correction factor to obtain more accurate IC50 values. This correction is derived from a PIP3 standard curve run in a separate assay plate. All data were calculated using the ratio of acceptor (APC) to donor (Europium) fluorescence in each well of the assay plate. […] An IC50 was then calculated fitting the % inhibition data to the equation: % inhibition=min+(Max−min)/1+([inhibitor]/IC50)^n) where min is the % inhibition with inhibitor, max is the signal in DMSO control, and n is the Hill slope.
The determination of relative selectivity for a given compound is defined as the relative ratio of the (PI3K-alphalC50 value/PI3K-delta IC50 value).

Turning to `CCn1c(-c2cnc(C)nc2)nc2c(N[C@H]3C[C@H](C(=O)OC)N(c4ccccn4)C3)ncnc21` [Compound 4-12, methyl (4S)-4-{[9-ethyl-8-(2-methylpyrimidin-5-yl)-9H-purin-6-yl]amino}-1-pyridin-2-yl-D-prolinate], the IC50 on PI3K-delta worked out at 8.2 nM. On PI3K-alpha, the “Selectivity versus PI3Kalpha” value is reported as >10.

Regarding `CCn1c(-c2cnc(C)nc2)nc2c(N[C@H]3CCN(C(=O)OCCCN(C)C)C3)ncnc21` [Compound 13-11, 3-(dimethylamino)propyl (3S)-3-{[9-ethyl-8-(2-methylpyrimidin-5-yl)-9H-purin-6-yl]amino}pyrrolidine-1-carboxylate], the IC50 at PI3K-delta turned out to be 4.3 nM. Further, on PI3K-alpha, the “Selectivity versus PI3Kalpha” value is on record as >10.

As for `CCn1c(-c2cnc(C)nc2)nc2c(N[C@H]3CCN(C(=O)C4CC(F)(F)C4)C3)ncnc21` [Compound 2-24, (S)-(3,3-difluorocyclobutyl)(3-((9-ethyl-8-(2-methylpyrimidin-5-yl)-9H-purin-6-yl)amino)pyrrolidin-1-yl)methanone], at PI3K-delta, the IC50 worked out at 6.8 nM. Besides, the “Selectivity versus PI3Kalpha” value on PI3K-alpha was >10.

Take `CCn1c(-c2cnc(C)nc2)nc2c(N[C@H]3CCN(C(=O)OC4CCS(=O)(=O)C4)C3)ncnc21` (mixture of isomers) [Compound 13-6, (S and R)-1,1-dioxidotetrahydrothiophen-3-yl (3S)-3-{[9-ethyl-8-(2-methylpyrimidin-5-yl)-9H-purin-6-yl]amino}pyrrolidine-l-carboxylate]: the IC50 on PI3K-delta is 4.6 nM. Besides, the “Selectivity versus PI3Kalpha” value at PI3K-alpha was >10.

Regarding `CCn1c(C(=O)NCC2CC2)nc2c(N[C@H]3CCN(C(=O)C4CC4)C3)ncnc21` [Compound 6-1, 6-{[(3S)-1-(cyclopropylcarbonyl)pyrrolidin-3-yl]amino}-N-(cyclopropylmethyl)-9-ethyl-9H-purine-8-carboxamide], the IC50 on PI3K-delta is 20 nM. Also, at PI3K-alpha, the “Selectivity versus PI3Kalpha” value is recorded as >10.

In the case of `CCn1c(-c2cnc(C)nc2)nc2c(N[C@H]3CCN(C(=O)N4CC[C@@H](OC)C4)C3)ncnc21` [Compound 12-15], at PI3K-delta, the IC50 amounted to 8.2 nM. The “Selectivity versus PI3Kalpha” value at PI3K-alpha was >10.

Regarding `CCn1c(-c2cnc(C)nc2)nc2c(N[C@H]3CCN(C(=O)C4(NC)CC4)C3)ncnc21` [Compound 2-82, 9-ethyl-N-[(3S)-1-{[1-(methylamino)cyclopropyl]car-bonyl}pyrrolidin-3-yl]-8-(2-methylpyrimidin-5-yl)-9H-purin-6-amine], on PI3K-delta, the IC50 turned out to be 21 nM. Also, the “Selectivity versus PI3Kalpha” value at PI3K-alpha is >10.

Take `CCn1c(-c2cnc(C)nc2)nc2c(N[C@H]3CCN(C(=O)OCC(C)(C)C)C3)ncnc21` [Compound 13-4, 2,2-dimethylpropyl (3S)-3-{[9-ethyl-8-(2-methylpyrimidin-5-yl)-9H-purin-6-yl]amino}pyrrolidine-1-carboxylate]: the IC50 at PI3K-delta came out at 8.2 nM. Also, the “Selectivity versus PI3Kalpha” value on PI3K-alpha is >10.

Regarding `CCn1c(-c2cnc(C)nc2)nc2c(N[C@H]3C[C@H](C(=O)NCCN(C)C)N(C(=O)C4CC4)C3)ncnc21` [Compound 15-8, (4S)-1-(cyclopropylcarbonyl)-N-[2-(dimethylamino)ethyl]-4-{[9-ethyl-8-(2-methylpyrimidin-5-yl)-9H-purin-6-yl]amino}-D-prolinamide], the IC50 at PI3K-delta turned out to be 8.8 nM. For the same compound, the “Selectivity versus PI3Kalpha” value on PI3K-alpha is on record as >10.

As for `CCn1c(-c2ccc(C(F)(F)F)nc2)nc2c(N[C@H]3CCN(C(=O)N4CCC4)C3)ncnc21` [Compound 12-26, N-[(3S)-1-(azetidin-1-ylcarbonyl)pyrrolidin-3-yl]-9-ethyl-8-[6-(trifluoromethyl)pyridin-3-yl]-9H-purin-6-amine], the IC50 at PI3K-delta is < 1 nM. For the same compound, the “Selectivity versus PI3Kalpha” value at PI3K-alpha is on record as >10.

For `CCn1c(-c2cnc(OC)c(F)c2)nc2c(N[C@H]3CCN(C(=O)C4CC(F)(F)C4)C3)ncnc21` [Compound 3A-7, N-{(3S)-1-[(3,3-difluorocyclobutyl)carbonyl]pyrrolidin-3-yl}-9-ethyl-8-(5-fluoro-6-methoxypyridin-3-yl)-9H-purin-6-amine], the IC50 at PI3K-delta was < 1 nM. The “Selectivity versus PI3Kalpha” value at PI3K-alpha is reported as >10.

In the case of `CCn1c(-c2cnc(C)nc2)nc2c(N[C@H]3CCN(C(=O)C4CCOCC4)C3)ncnc21` [Compound 2-18, (S)-(3-((9-ethyl-8-(2-methylpyrimidin-5-yl)-9H-purin-6-yl)amino)pyrrolidin-1-yl)(tetrahydro-2H-pyran-4-yl)methanone], on PI3K-delta, the IC50 worked out at 2.4 nM. For the same compound, the “Selectivity versus PI3Kalpha” value at PI3K-alpha was >10.

Consider `CCn1c(-c2cnc(OC)c(C)c2)nc2c(N[C@H]3CCN(C(=O)C4CC(F)(F)C4)C3)ncnc21` [Compound 3A-5, N-{(3S)-1-[(3,3-difluorocyclobutyl)carbonyl]pyrrolidin-3-yl}-9-ethyl-8-(6-methoxy-5-methylpyridin-3-yl)-9H-purin-6-amine], for which the IC50 on PI3K-delta is < 1 nM. Also, on PI3K-alpha, the “Selectivity versus PI3Kalpha” value is recorded as >10.

As to `CCn1c(-c2cnc(C)nc2)nc2c(N[C@H]3CCN(C(=O)NCC4CCS(=O)(=O)C4)C3)ncnc21` (mixture of isomers) [Compound 12-20, (3S)-N-[((S and R)-1,1-dioxidotetrahydrothiophen-3-yl)methyl]-3-{[9-ethyl-8-(2-methylpyrimidin-5-yl)-9H-purin-6-yl]amino}pyrrolidine-1-carboxamide], the IC50 on PI3K-delta is 9.4 nM. Moreover, on PI3K-alpha, the “Selectivity versus PI3Kalpha” value was >10.

As for `CCn1c(-c2cnc(C)nc2)nc2c(NC3CN(C(=O)OC(C)(C)C)CC3O)ncnc21` (racemic) [Compound 1-15, ((3R,4R) and (3S,4S))-tert-butyl 3-{[9-ethyl-8-(2-methylpyrimidin-5-yl)-9H-purin-6-yl]amino}-4-hydroxypyrrolidine-1-carboxylate], the IC50 at PI3K-delta turned out to be 10 nM. Further, the “Selectivity versus PI3Kalpha” value at PI3K-alpha is recorded as >10.

Take `CCCN1CC[C@H](Nc2ncnc3c2nc(-c2cnn(CC)c2C)n3C)C1` [Compound 10-1, 8-(1-ethyl-5-methyl-1H-pyrazol-4-yl)-9-methyl-N-[(3S)-1-propylpyrrolidin-3-yl]-9H-purin-6-amine]: on PI3K-delta, the IC50 was 42 nM. Besides, the “Selectivity versus PI3Kalpha” value on PI3K-alpha is >10.

For the compound `CCn1c(-c2cnc(C)nc2)nc2c(N[C@H]3CCN(C(=O)C4CC45CCCC5)C3)ncnc21` (single isomer, unassigned) [Compound 2-35, 9-ethyl-8-(2-methylpyrimidin-5-yl)-N-[(3S)-1-((R or S)-spiro[2.4]hept-1-ylcarbonyl)pyrrolidin-3-yl]-9H-purin-6-amine], the IC50 at PI3K-delta was < 1 nM. For the same compound, the “Selectivity versus PI3Kalpha” value at PI3K-alpha is recorded as >10.

For `CCn1c(-c2cnc(C)nc2)nc2c(N[C@H]3C[C@H](C(N)=O)N(C(=O)C4CC4)C3)ncnc21` [Compound 15-5, (4S)-1-(cyclopropylcarbonyl)-4-{[9-ethyl-8-(2-methylpyrimidin-5-yl)-9H-purin-6-yl]amino}-D-prolinamide], the IC50 on PI3K-delta came out at 3 nM. At PI3K-alpha, the “Selectivity versus PI3Kalpha” value was >10.

As for `CCn1c(-c2cnc(OC)c(C)c2)nc2c(N(C)[C@H]3CCN(C(=O)OC(C)(C)C)C3)ncnc21` [Compound 1-4, (S)-tert-butyl 3-((9-ethyl-8-(6-methoxy-5-methylpyridin-3-yl)-9H-purin-6-yl)(methyl)amino)pyrrolidine-1-carboxylate], the IC50 at PI3K-delta worked out at 1.7 nM. For the same compound, the “Selectivity versus PI3Kalpha” value on PI3K-alpha is >10.

`CCn1c(-c2ccc(C(F)(F)F)nc2)nc2c(N[C@H]3CCN(C(=O)[C@@H]4CC4(C)C)C3)ncnc21` [Compound 2-51, N-[(3S)-1-{[(1R)-2,2-dimethylcyclopropyl]carbonyl}pyrrolidin-3-yl]-9-ethyl-8-[6-(trifluoromethyl)pyridin-3-yl]-9H-purin-6-amine]: on PI3K-delta, the IC50 is < 1 nM. In addition, the “Selectivity versus PI3Kalpha” value at PI3K-alpha is >10.

On to `CCn1c(-c2cnc(C)nc2)nc2c(N[C@H]3CC[C@@H](C(=O)N(C)C4CC4)C3)ncnc21` [Compound 5-5, (1R,3S)-N-cyclopropyl-3-{[9-ethyl-8-(2-methylpyrimidin-5-yl)-9H-purin-6-yl]amino}-N-methylcyclopentanecarboxamide], for which the IC50 at PI3K-delta is 3.7 nM. Also, the “Selectivity versus PI3Kalpha” value on PI3K-alpha is on record as >10.

For `CCC(=O)N1CC[C@H](Nc2ncnc3c2nc(-c2ccc(C(F)(F)F)nc2)n3C)C1` [Compound 3-1, (S)-1-(3-((9-methyl-8-(6-(trifluoromethyl)pyridin-3-yl)-9H-purin-6-yl)amino)pyrrolidin-1-yl)propan-1-one], the IC50 at PI3K-delta is 11 nM. Moreover, the “Selectivity versus PI3Kalpha” value on PI3K-alpha was >10.

Consider `CCn1c(-c2ccc(C(F)(F)F)nc2)nc2c(N[C@H]3CCN(C(=O)OC(C)(C)C)C3)ncnc21` [Compound 1-22, tert-butyl (3S)-3-({9-ethyl-8-[6-(trifluoromethyl)pyridin-3-yl]-9H-purin-6-yl}amino)pyrrolidine-1-carboxylate], for which the IC50 at PI3K-delta is < 1 nM. In addition, the “Selectivity versus PI3Kalpha” value at PI3K-alpha is on record as >10.

Regarding `CCn1c(CCCO)nc2c(N[C@H]3CCN(C(=O)C4CC4)C3)ncnc21` [Compound 7-6, 3-(6-{[(3S)-1-(cyclopropylcarbonyl)pyrrolidin-3-yl]amino}-9-ethyl-9H-purin-8-yl)propan-1-ol], at PI3K-delta, the IC50 was found to be 110 nM. In addition, at PI3K-alpha, the “Selectivity versus PI3Kalpha” value is given as >10.

As for `CCC(=O)N1CC[C@H](Nc2ncnc3c2nc(-c2ccc4cc[nH]c4c2)n3C)C1` [Compound 3-4, (S)-1-(3-((8-(1H-indol-6-yl)-9-methyl-9H-purin-6-yl)amino)pyrrolidin-1-yl)propan-1-one], the IC50 on PI3K-delta stood at 7.7 nM. For the same compound, the “Selectivity versus PI3Kalpha” value at PI3K-alpha is listed as >10.

For the compound `CCC(=O)N1CCC[C@H](Nc2ncnc3c2nc(-c2cnc(C)nc2)n3CC)C1` [Compound 2-27, 9-ethyl-8-(2-methylpyrimidin-5-yl)-N-[(3S)-1-propanoylpiperidin-3-yl]-9H-purin-6-amine], the IC50 on PI3K-delta worked out at 28 nM. Also, the “Selectivity versus PI3Kalpha” value on PI3K-alpha is given as >10.

`CCn1c(-c2cnc(C)nc2)nc2c(N[C@H]3CCCN(C(=O)OC(C)(C)C)C3)ncnc21` [Compound 1-16, tert-butyl (3S)-3-{[9-ethyl-8-(2-methylpyrimidin-5-yl)-9H-purin-6-yl]amino}piperidine-1-carboxylate]: the IC50 on PI3K-delta was found to be 49 nM. Moreover, the “Selectivity versus PI3Kalpha” value on PI3K-alpha was >10.
